Measured values published in the supplement of paper PMC10307832.

Tests used:
Assay in all cases: relative viability (nuclei count vs DMSO), 5 days (fraction); higher = more cells survive
Quizartinib + Vorinostat = compound: CC(C)(C)c1cc(NC(=O)Nc2ccc(-c3cn4c(n3)sc3cc(OCCN5CCOCC5)ccc34)cc2)no1 [Quizartinib] + O=C(CCCCCCC(=O)Nc1ccccc1)NO [Vorinostat] (partner 1 µM)
Summary of the method: (§1)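 Values are medians from duplicate plates. Each reflects relative viability, defined as the nuclei count of treated wells over that of vehicle wells. Lung cancer cell lines in 1536-well plates were pin-tool dosed one day after seeding with one drug alone or with a fixed anchor-drug dose plus five library-drug doses (not always all listed) in √10 steps, then fixed, stained and imaged at 4× after 5 days.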

YM155 + Luminespib = compound: COCC[n+]1c2c(n(Cc3cnccn3)c1C)C(=O)c1ccccc1C2=O [YM155] + CCNC(=O)c1noc(-c2cc(C(C)C)c(O)cc2O)c1-c1ccc(CN2CCOCC2)cc1 [Luminespib] (partner 0.01 µM)
Summary of the method: as §1

YM155 + Tozasertib = compound: COCC[n+]1c2c(n(Cc3cnccn3)c1C)C(=O)c1ccccc1C2=O [YM155] + Cc1cc(Nc2cc(N3CCN(C)CC3)nc(Sc3ccc(NC(=O)C4CC4)cc3)n2)n[nH]1 [Tozasertib] (partner 0.1 µM)
Summary of the method: as §1

YM155 + Olaparib = compound: COCC[n+]1c2c(n(Cc3cnccn3)c1C)C(=O)c1ccccc1C2=O [YM155] + O=C(c1cc(Cc2n[nH]c(=O)c3ccccc23)ccc1F)N1CCN(C(=O)C2CC2)CC1 [Olaparib] (partner 8 µM)
Summary of the method: as §1

## RERF-LC-KJ
Quizartinib + Vorinostat; first compound 0.001 µM
  relative viability: 0.58
Quizartinib + Vorinostat; first compound 0.003162 µM
  relative viability: 0.707
Quizartinib + Vorinostat; first compound 0.01 µM
  relative viability: 0.751
Quizartinib + Vorinostat; first compound 0.03162 µM
  relative viability: 0.53
Quizartinib + Vorinostat; first compound 0.1 µM
  relative viability: 0.691
YM155 + Luminespib; first compound 0.002 µM
  relative viability: 1.14
YM155 + Luminespib; first compound 0.006325 µM
  relative viability: 1
YM155 + Luminespib; first compound 0.02 µM
  relative viability: 1.18
YM155 + Luminespib; first compound 0.06325 µM
  relative viability: 1.15
YM155 + Tozasertib; first compound 0.002 µM
  relative viability: 0.375
YM155 + Tozasertib; first compound 0.006325 µM
  relative viability: 0.482
YM155 + Tozasertib; first compound 0.02 µM
  relative viability: 0.563
YM155 + Tozasertib; first compound 0.06325 µM
  relative viability: 0.468
YM155 + Olaparib; first compound 0.002 µM
  relative viability: 0.825
YM155 + Olaparib; first compound 0.006325 µM
  relative viability: 0.801
YM155 + Olaparib; first compound 0.02 µM
  relative viability: 0.95
YM155 + Olaparib; first compound 0.06325 µM
  relative viability: 0.858

## NCI-H1944
Quizartinib + Vorinostat; first compound 0.001 µM
  relative viability: 0.448
Quizartinib + Vorinostat; first compound 0.003162 µM
  relative viability: 0.579
Quizartinib + Vorinostat; first compound 0.01 µM
  relative viability: 0.465
Quizartinib + Vorinostat; first compound 0.03162 µM
  relative viability: 0.532
Quizartinib + Vorinostat; first compound 0.1 µM
  relative viability: 0.588
YM155 + Luminespib; first compound 0.002 µM
  relative viability: 0.688
YM155 + Luminespib; first compound 0.006325 µM
  relative viability: 0.637
YM155 + Luminespib; first compound 0.02 µM
  relative viability: 0.81
YM155 + Luminespib; first compound 0.06325 µM
  relative viability: 1.16
YM155 + Tozasertib; first compound 0.002 µM
  relative viability: 0.253
YM155 + Tozasertib; first compound 0.006325 µM
  relative viability: 0.279
YM155 + Tozasertib; first compound 0.02 µM
  relative viability: 0.259
YM155 + Tozasertib; first compound 0.06325 µM
  relative viability: 0.232
YM155 + Olaparib; first compound 0.002 µM
  relative viability: 0.401
YM155 + Olaparib; first compound 0.006325 µM
  relative viability: 0.364
YM155 + Olaparib; first compound 0.02 µM
  relative viability: 0.404
YM155 + Olaparib; first compound 0.06325 µM
  relative viability: 0.406

## ChaGo-K-1
Quizartinib + Vorinostat; first compound 0.003162 µM
  relative viability: 0.709
Quizartinib + Vorinostat; first compound 0.01 µM
  relative viability: 0.758
Quizartinib + Vorinostat; first compound 0.03162 µM
  relative viability: 0.719
Quizartinib + Vorinostat; first compound 0.1 µM
  relative viability: 0.773
YM155 + Luminespib; first compound 0.002 µM
  relative viability: 0.651
YM155 + Luminespib; first compound 0.006325 µM
  relative viability: 0.509
YM155 + Luminespib; first compound 0.02 µM
  relative viability: 0.715
YM155 + Luminespib; first compound 0.06325 µM
  relative viability: 0.714
YM155 + Tozasertib; first compound 0.002 µM
  relative viability: 0.22
YM155 + Tozasertib; first compound 0.006325 µM
  relative viability: 0.208
YM155 + Tozasertib; first compound 0.02 µM
  relative viability: 0.24
YM155 + Tozasertib; first compound 0.06325 µM
  relative viability: 0.236
YM155 + Olaparib; first compound 0.002 µM
  relative viability: 0.364
YM155 + Olaparib; first compound 0.006325 µM
  relative viability: 0.38
YM155 + Olaparib; first compound 0.02 µM
  relative viability: 0.43
YM155 + Olaparib; first compound 0.06325 µM
  relative viability: 0.385

## NCI-H1734
Quizartinib + Vorinostat; first compound 0.001 µM
  relative viability: 0.748
Quizartinib + Vorinostat; first compound 0.003162 µM
  relative viability: 0.802
Quizartinib + Vorinostat; first compound 0.01 µM
  relative viability: 0.796
Quizartinib + Vorinostat; first compound 0.03162 µM
  relative viability: 0.746
Quizartinib + Vorinostat; first compound 0.1 µM
  relative viability: 0.854
YM155 + Luminespib; first compound 0.002 µM
  relative viability: 0.242
YM155 + Luminespib; first compound 0.006325 µM
  relative viability: 0.202
YM155 + Luminespib; first compound 0.02 µM
  relative viability: 0.23
YM155 + Luminespib; first compound 0.06325 µM
  relative viability: 0.174
YM155 + Tozasertib; first compound 0.002 µM
  relative viability: 0.268
YM155 + Tozasertib; first compound 0.006325 µM
  relative viability: 0.234
YM155 + Tozasertib; first compound 0.02 µM
  relative viability: 0.26
YM155 + Tozasertib; first compound 0.06325 µM
  relative viability: 0.281
YM155 + Olaparib; first compound 0.002 µM
  relative viability: 0.53
YM155 + Olaparib; first compound 0.006325 µM
  relative viability: 0.607
YM155 + Olaparib; first compound 0.02 µM
  relative viability: 0.656
YM155 + Olaparib; first compound 0.06325 µM
  relative viability: 0.63

## 201T
Quizartinib + Vorinostat; first compound 0.001 µM
  relative viability: 1
Quizartinib + Vorinostat; first compound 0.003162 µM
  relative viability: 0.982
Quizartinib + Vorinostat; first compound 0.01 µM
  relative viability: 0.963
Quizartinib + Vorinostat; first compound 0.03162 µM
  relative viability: 0.965
Quizartinib + Vorinostat; first compound 0.1 µM
  relative viability: 0.992
YM155 + Luminespib; first compound 0.002 µM
  relative viability: 1.05
YM155 + Luminespib; first compound 0.006325 µM
  relative viability: 1.06
YM155 + Luminespib; first compound 0.02 µM
  relative viability: 1.04
YM155 + Luminespib; first compound 0.06325 µM
  relative viability: 1.09
YM155 + Tozasertib; first compound 0.002 µM
  relative viability: 0.916
YM155 + Tozasertib; first compound 0.006325 µM
  relative viability: 0.961
YM155 + Tozasertib; first compound 0.02 µM
  relative viability: 0.955
YM155 + Tozasertib; first compound 0.06325 µM
  relative viability: 0.974
YM155 + Olaparib; first compound 0.002 µM
  relative viability: 0.813
YM155 + Olaparib; first compound 0.006325 µM
  relative viability: 0.845
YM155 + Olaparib; first compound 0.02 µM
  relative viability: 0.826
YM155 + Olaparib; first compound 0.06325 µM
  relative viability: 0.874

## HCC-827
Quizartinib + Vorinostat; first compound 0.001 µM
  relative viability: 0.797
Quizartinib + Vorinostat; first compound 0.003162 µM
  relative viability: 0.881
Quizartinib + Vorinostat; first compound 0.03162 µM
  relative viability: 0.724
Quizartinib + Vorinostat; first compound 0.1 µM
  relative viability: 0.886
YM155 + Luminespib; first compound 0.002 µM
  relative viability: 0.662
YM155 + Luminespib; first compound 0.006325 µM
  relative viability: 0.451
YM155 + Luminespib; first compound 0.02 µM
  relative viability: 0.403
YM155 + Luminespib; first compound 0.06325 µM
  relative viability: 0.586
YM155 + Tozasertib; first compound 0.002 µM
  relative viability: 0.421
YM155 + Tozasertib; first compound 0.006325 µM
  relative viability: 0.416
YM155 + Tozasertib; first compound 0.02 µM
  relative viability: 0.448
YM155 + Tozasertib; first compound 0.06325 µM
  relative viability: 0.475
YM155 + Olaparib; first compound 0.002 µM
  relative viability: 0.708
YM155 + Olaparib; first compound 0.006325 µM
  relative viability: 0.649
YM155 + Olaparib; first compound 0.02 µM
  relative viability: 0.654
YM155 + Olaparib; first compound 0.06325 µM
  relative viability: 0.702

## LCLC-97TM1
Quizartinib + Vorinostat; first compound 0.001 µM
  relative viability: 0.573
Quizartinib + Vorinostat; first compound 0.003162 µM
  relative viability: 0.52
Quizartinib + Vorinostat; first compound 0.01 µM
  relative viability: 0.685
Quizartinib + Vorinostat; first compound 0.03162 µM
  relative viability: 0.677
Quizartinib + Vorinostat; first compound 0.1 µM
  relative viability: 0.767
YM155 + Luminespib; first compound 0.002 µM
  relative viability: 0.838
YM155 + Luminespib; first compound 0.006325 µM
  relative viability: 0.816
YM155 + Luminespib; first compound 0.02 µM
  relative viability: 0.717
YM155 + Luminespib; first compound 0.06325 µM
  relative viability: 0.71
YM155 + Tozasertib; first compound 0.002 µM
  relative viability: 0.197
YM155 + Tozasertib; first compound 0.006325 µM
  relative viability: 0.202
YM155 + Tozasertib; first compound 0.02 µM
  relative viability: 0.227
YM155 + Tozasertib; first compound 0.06325 µM
  relative viability: 0.22
YM155 + Olaparib; first compound 0.006325 µM
  relative viability: 0.321
YM155 + Olaparib; first compound 0.02 µM
  relative viability: 0.311
YM155 + Olaparib; first compound 0.06325 µM
  relative viability: 0.376

## NCI-H441
Quizartinib + Vorinostat; first compound 0.001 µM
  relative viability: 0.755
Quizartinib + Vorinostat; first compound 0.003162 µM
  relative viability: 0.683
Quizartinib + Vorinostat; first compound 0.01 µM
  relative viability: 0.972
Quizartinib + Vorinostat; first compound 0.03162 µM
  relative viability: 0.595
Quizartinib + Vorinostat; first compound 0.1 µM
  relative viability: 0.834
YM155 + Luminespib; first compound 0.002 µM
  relative viability: 0.327
YM155 + Luminespib; first compound 0.006325 µM
  relative viability: 0.394
YM155 + Luminespib; first compound 0.02 µM
  relative viability: 0.259
YM155 + Luminespib; first compound 0.06325 µM
  relative viability: 0.301
YM155 + Tozasertib; first compound 0.002 µM
  relative viability: 0.559
YM155 + Tozasertib; first compound 0.006325 µM
  relative viability: 0.63
YM155 + Tozasertib; first compound 0.02 µM
  relative viability: 0.645
YM155 + Tozasertib; first compound 0.06325 µM
  relative viability: 0.467
YM155 + Olaparib; first compound 0.002 µM
  relative viability: 0.597
YM155 + Olaparib; first compound 0.006325 µM
  relative viability: 0.524
YM155 + Olaparib; first compound 0.02 µM
  relative viability: 0.518
YM155 + Olaparib; first compound 0.06325 µM
  relative viability: 0.299
